# How the values were obtained:
# Test in all cases: KINOMEscan competitive binding, whole panel
# panel of 203 kinases [1] = target: T1, panel of 203 kinases (Homo sapiens, UniProt O94768); conditions: 10 µM, n=1; kinase DRAK2; read-out: Percent inhibition DRAK2
# T1 construct: purchased DiscoverX (KINOMEscan)
# T1 sequence (O94768 1-372): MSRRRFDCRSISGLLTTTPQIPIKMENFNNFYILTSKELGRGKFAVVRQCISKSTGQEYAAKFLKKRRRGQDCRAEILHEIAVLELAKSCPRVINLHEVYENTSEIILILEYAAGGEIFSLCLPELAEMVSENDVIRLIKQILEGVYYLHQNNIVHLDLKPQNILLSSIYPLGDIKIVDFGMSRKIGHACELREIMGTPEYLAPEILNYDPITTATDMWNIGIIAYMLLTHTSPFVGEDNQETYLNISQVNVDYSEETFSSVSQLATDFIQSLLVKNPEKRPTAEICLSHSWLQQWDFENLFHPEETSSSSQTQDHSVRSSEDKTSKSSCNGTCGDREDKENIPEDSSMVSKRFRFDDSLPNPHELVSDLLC
# Outline: (§1)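 Percentage inhibition reflects loss of kinase binding to solid-phase ATP-site probe ligands in the presence of compound. Kinases carry a T7 bacteriophage fusion.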
# panel of 203 kinases [2] = target: T2, panel of 203 kinases (Homo sapiens, UniProt P06213); conditions: 10 µM, n=1; kinase INSR; read-out: Percent inhibition INSR
# T2 construct: purchased DiscoverX (KINOMEscan)
# Outline: as §1
# panel of 203 kinases [3] = target: T3, panel of 203 kinases (Homo sapiens, UniProt P07332); conditions: 10 µM, n=1; kinase FES; read-out: Percent inhibition FES
# T3 construct: purchased DiscoverX (KINOMEscan)
# Outline: as §1
# panel of 203 kinases [4] = target: T4, panel of 203 kinases (Homo sapiens, UniProt P08581); conditions: 10 µM, n=1; kinase MET; read-out: Percent inhibition MET
# T4 construct: purchased DiscoverX (KINOMEscan)
# Outline: as §1
# panel of 203 kinases [5] = target: T5, panel of 203 kinases (Homo sapiens, UniProt P22455); conditions: 10 µM, n=1; kinase FGFR4; read-out: Percent inhibition FGFR4
# T5 construct: purchased DiscoverX (KINOMEscan)
# Outline: as §1
# panel of 203 kinases [6] = target: T6, panel of 203 kinases (Homo sapiens, UniProt P53667); conditions: 10 µM, n=1; kinase LIMK1; read-out: Percent inhibition LIMK1
# T6 construct: purchased DiscoverX (KINOMEscan)
# Outline: as §1
# panel of 203 kinases [7] = target: T7, panel of 203 kinases (Homo sapiens, UniProt P54753); conditions: 10 µM, n=1; kinase EPHB3; read-out: Percent inhibition EPHB3
# T7 construct: purchased DiscoverX (KINOMEscan)
# T7 sequence (P54753 34-998): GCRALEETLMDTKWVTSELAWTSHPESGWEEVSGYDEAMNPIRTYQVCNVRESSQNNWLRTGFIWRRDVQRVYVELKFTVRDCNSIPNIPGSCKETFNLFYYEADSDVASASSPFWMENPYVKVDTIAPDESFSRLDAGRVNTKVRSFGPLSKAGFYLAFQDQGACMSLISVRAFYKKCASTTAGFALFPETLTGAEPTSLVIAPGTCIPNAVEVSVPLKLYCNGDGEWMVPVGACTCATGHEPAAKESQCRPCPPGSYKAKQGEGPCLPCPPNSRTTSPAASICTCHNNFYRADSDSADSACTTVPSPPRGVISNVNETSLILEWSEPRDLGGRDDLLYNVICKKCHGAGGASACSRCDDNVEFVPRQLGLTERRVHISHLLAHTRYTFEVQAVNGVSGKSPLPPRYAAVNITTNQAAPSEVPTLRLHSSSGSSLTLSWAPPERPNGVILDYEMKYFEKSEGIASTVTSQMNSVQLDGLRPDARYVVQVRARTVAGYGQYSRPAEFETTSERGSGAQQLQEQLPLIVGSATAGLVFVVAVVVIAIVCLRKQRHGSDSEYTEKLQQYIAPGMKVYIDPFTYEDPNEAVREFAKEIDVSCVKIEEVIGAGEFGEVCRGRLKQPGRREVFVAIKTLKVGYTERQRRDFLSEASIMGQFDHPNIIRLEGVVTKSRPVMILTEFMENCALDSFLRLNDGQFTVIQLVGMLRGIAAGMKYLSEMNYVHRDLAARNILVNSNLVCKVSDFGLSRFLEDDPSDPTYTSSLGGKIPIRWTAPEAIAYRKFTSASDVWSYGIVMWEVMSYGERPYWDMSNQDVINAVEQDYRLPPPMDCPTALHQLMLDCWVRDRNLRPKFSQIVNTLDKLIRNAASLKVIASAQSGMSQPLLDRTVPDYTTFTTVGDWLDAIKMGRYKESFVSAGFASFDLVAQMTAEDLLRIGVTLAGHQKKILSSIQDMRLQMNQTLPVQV
# Outline: as §1
# panel of 203 kinases [8] = target: T8, panel of 203 kinases (Homo sapiens, UniProt Q9Y6R4); conditions: 10 µM, n=1; kinase MAP3K4; read-out: Percent inhibition MAP3K4
# T8 construct: purchased DiscoverX (KINOMEscan)
# Outline: as §1
# T4 sequence (P08581 25-1390): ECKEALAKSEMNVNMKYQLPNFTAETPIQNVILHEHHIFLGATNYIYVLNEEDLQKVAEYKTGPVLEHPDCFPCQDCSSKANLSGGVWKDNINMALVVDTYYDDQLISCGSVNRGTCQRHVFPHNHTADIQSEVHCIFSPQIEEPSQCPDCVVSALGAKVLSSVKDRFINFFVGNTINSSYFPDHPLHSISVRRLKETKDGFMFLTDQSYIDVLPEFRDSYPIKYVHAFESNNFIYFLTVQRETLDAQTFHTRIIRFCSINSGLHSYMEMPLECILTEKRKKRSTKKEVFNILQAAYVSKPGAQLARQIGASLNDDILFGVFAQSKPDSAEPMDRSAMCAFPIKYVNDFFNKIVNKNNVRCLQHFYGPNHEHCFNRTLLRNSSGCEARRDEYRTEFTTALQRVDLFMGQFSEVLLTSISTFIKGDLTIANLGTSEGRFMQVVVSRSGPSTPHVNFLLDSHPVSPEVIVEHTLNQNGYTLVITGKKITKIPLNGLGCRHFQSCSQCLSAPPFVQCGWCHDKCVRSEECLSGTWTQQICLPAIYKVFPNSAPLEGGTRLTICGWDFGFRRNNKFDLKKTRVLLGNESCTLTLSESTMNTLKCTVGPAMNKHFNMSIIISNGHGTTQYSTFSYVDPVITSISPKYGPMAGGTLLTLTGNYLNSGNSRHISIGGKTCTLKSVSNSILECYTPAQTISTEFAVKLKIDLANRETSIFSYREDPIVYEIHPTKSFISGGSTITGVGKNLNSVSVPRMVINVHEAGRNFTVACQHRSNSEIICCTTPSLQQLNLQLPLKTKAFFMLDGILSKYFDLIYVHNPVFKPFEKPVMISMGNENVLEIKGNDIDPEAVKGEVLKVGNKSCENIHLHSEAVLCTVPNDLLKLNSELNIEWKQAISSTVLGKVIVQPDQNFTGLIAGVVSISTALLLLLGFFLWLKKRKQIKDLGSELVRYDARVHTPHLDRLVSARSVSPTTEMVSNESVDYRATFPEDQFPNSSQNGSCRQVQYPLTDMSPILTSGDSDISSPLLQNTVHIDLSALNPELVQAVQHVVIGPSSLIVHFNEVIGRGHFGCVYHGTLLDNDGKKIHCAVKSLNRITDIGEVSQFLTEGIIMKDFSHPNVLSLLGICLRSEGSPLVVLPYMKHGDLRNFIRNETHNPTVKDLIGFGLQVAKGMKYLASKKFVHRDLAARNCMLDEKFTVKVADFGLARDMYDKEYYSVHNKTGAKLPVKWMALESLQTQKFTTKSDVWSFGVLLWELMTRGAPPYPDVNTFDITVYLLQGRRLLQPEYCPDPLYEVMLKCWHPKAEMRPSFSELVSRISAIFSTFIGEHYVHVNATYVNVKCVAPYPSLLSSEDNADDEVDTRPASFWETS
# T8 sequence (Q9Y6R4 whole entry): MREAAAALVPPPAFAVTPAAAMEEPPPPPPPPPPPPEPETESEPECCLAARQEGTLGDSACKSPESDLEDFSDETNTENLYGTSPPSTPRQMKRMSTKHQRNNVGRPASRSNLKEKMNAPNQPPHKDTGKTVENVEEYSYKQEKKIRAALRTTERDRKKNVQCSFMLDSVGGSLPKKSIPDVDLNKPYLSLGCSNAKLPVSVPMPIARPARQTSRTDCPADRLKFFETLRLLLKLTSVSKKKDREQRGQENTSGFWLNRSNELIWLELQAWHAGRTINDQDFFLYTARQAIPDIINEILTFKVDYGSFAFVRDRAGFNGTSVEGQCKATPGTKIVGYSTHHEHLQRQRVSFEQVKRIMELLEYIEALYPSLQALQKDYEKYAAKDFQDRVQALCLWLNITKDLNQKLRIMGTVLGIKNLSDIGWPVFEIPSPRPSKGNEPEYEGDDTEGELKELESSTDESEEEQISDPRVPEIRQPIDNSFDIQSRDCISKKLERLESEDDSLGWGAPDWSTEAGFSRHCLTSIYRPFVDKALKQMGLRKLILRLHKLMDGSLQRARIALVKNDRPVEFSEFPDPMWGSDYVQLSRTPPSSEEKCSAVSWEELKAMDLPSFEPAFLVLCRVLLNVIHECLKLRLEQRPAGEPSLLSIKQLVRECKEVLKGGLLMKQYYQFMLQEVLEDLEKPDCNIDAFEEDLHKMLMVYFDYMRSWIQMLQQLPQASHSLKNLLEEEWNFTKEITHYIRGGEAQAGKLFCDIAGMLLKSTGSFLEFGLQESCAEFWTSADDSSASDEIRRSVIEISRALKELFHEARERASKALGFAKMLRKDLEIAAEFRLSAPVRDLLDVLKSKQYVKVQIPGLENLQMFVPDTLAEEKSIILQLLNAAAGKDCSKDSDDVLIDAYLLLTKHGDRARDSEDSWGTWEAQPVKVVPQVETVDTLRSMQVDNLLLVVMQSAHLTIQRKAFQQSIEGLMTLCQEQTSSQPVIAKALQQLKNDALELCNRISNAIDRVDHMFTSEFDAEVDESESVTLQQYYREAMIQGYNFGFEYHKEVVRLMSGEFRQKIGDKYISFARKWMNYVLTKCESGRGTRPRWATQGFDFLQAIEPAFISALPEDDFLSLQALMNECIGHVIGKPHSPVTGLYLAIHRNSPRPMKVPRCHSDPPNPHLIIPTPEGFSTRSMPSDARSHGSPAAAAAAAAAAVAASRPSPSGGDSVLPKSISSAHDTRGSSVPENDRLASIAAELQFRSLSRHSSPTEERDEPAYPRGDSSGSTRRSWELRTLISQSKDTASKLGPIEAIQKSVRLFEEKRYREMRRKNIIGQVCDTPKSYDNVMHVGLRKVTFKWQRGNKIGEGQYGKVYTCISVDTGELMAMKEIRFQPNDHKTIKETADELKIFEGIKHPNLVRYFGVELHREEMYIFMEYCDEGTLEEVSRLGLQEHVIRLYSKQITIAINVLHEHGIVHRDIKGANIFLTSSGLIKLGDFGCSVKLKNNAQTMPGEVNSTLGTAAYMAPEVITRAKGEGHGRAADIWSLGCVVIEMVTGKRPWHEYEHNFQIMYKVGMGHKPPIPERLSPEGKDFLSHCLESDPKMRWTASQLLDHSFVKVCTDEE
# T2 sequence (P06213 28-1382): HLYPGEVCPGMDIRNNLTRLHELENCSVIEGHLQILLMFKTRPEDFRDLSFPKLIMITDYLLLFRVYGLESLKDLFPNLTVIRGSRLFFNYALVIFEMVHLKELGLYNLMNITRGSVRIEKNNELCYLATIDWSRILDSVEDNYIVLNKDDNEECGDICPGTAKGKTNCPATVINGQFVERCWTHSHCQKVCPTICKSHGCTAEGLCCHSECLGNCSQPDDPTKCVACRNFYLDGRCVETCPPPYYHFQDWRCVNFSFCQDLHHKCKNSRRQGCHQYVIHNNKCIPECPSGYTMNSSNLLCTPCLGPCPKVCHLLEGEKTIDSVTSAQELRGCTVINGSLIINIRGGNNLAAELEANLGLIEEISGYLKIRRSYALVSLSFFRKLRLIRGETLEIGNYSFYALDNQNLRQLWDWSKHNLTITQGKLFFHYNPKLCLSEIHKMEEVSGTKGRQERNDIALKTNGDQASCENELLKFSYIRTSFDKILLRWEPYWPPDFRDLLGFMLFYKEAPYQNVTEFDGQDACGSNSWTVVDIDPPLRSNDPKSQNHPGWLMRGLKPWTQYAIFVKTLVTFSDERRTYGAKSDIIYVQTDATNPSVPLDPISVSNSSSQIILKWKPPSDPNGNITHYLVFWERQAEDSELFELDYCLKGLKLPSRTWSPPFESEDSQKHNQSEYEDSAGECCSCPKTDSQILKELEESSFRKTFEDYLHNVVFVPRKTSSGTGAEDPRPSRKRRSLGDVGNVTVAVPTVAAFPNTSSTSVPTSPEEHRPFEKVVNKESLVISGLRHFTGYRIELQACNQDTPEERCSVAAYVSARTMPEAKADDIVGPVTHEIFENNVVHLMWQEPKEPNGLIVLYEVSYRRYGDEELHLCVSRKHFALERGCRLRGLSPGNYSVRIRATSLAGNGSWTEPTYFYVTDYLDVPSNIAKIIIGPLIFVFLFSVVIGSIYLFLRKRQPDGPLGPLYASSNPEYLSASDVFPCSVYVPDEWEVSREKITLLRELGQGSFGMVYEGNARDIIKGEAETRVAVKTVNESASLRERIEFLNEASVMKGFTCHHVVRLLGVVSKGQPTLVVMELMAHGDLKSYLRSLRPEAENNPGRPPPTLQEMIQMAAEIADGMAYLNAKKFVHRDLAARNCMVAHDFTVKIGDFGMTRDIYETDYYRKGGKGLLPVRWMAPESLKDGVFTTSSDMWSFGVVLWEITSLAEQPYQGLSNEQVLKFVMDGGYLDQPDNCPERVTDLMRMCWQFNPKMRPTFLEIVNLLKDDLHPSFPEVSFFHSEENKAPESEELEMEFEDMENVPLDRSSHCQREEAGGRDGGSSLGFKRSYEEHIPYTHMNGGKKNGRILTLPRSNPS
# T6 sequence (P53667 whole entry): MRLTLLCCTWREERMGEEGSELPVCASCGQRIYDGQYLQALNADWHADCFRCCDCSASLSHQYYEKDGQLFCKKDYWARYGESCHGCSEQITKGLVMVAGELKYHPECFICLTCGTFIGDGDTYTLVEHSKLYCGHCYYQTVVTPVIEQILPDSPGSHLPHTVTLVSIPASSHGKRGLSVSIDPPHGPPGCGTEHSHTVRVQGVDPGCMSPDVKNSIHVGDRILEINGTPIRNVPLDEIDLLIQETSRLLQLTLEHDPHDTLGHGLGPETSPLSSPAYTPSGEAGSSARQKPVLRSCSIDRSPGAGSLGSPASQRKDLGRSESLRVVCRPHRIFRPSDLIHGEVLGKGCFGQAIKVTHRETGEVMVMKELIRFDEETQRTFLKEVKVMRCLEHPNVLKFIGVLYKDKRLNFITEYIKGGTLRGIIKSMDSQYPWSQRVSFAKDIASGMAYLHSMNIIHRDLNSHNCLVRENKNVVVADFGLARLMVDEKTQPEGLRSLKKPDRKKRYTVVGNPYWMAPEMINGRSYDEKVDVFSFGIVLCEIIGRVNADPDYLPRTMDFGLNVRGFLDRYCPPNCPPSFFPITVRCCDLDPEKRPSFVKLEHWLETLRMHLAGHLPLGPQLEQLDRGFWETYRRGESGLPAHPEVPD
Compound,inhibition at 10 µM (panel of 203 kinases [1]) [%],inhibition at 10 µM (panel of 203 kinases [2]) [%],inhibition at 10 µM (panel of 203 kinases [3]) [%],inhibition at 10 µM (panel of 203 kinases [4]) [%],inhibition at 10 µM (panel of 203 kinases [5]) [%],inhibition at 10 µM (panel of 203 kinases [6]) [%],inhibition at 10 µM (panel of 203 kinases [7]) [%],inhibition at 10 µM (panel of 203 kinases [8]) [%]
CN1CCN(c2ccc(Nc3nccc(-c4cnn5ncccc45)n3)cc2C#N)CC1 [Compound 1],82.4,94.3,66.7,0,0,85.9,0,91
COc1ccc(Nc2nccc(-c3cnn4ncccc34)n2)cc1 [Compound 2],88.6,76.9,84.9,68.8,0,90.5,0,0
Cc1ccc(O)cc1Nc1ccnc(Nc2cccc(C(N)=O)c2)n1 [Compound 3],0,0,96.7,0,82.4,86.4,100,0
Cc1ccc(O)cc1N(C)c1ccnc(Nc2cccc(S(N)(=O)=O)c2)n1 [Compound 4],0,0,100,90.2,0,91.9,100,0
Fc1cccc(COc2ccc(Nc3ncnc4c3CN(CCN3CCOCC3)CC4)cc2Cl)c1 [Compound 6],0,0,0,0,0,0,0,0
COc1cc(Nc2nccc(-c3sc(N)nc3-c3cccc(NC(=O)c4c(F)cccc4F)c3)n2)cc(OC)c1OC [Compound 7],0,97.3,99.8,99.6,100,100,0,99.6
C[C@@H](Oc1cc(-c2cnc3ccccn23)sc1C(N)=O)c1ccccc1Cl [Compound 8],0,0,0,78.4,0,0,0,0
c1ccc(COc2cccc(-c3ccnc4[nH]ccc34)c2)cc1 [Compound 9],0,0,0,0,0,0,0,0
Clc1ccc(Nc2ncc(-c3ccccc3)s2)cc1 [Compound 10],0,0,0,0,0,0,0,0
Nc1ncc2c(-c3ccncc3)c[nH]c2n1 [Compound 11],89.7,0,0,0,0,0,0,0

# Reference: article PMC9927415, “Tyrosine Kinase Inhibitors Display Potent Activity against Cryptosporidium parvum” (Microbiology Spectrum, 2022)
